# Values quoted from earlier work in patent US20160310552A1, “NORTHERN WHITE KIDNEY BEAN EXTRACT AND CERATONIA SILIQUA EXTRACT IN COMBINATION WITH GREEN TEA EXTRACT IN THE TREATMENT OF EXCESS WEIGHT AND OBESITY” (priority 2015, published 2016).
# Columns and labels:
# [1] = during a 12 month period
# [2] = preliminary data; 10% with placebo
compound,measurement,setting,value
CC(C)CC(N(C)C)C1(c2ccc(Cl)cc2)CCC1 (centres unmarked) [sibutramine],Weight loss,[1],5-10%
same,"Subjects who died or had a heart attack, a stroke or cardiac arrest",[2],11.4%
